Where “and” joins values, the source holds several entries; their conditions need not be identical. Identical values can stand only once. Like-named read-outs stand apart in the source and are kept apart here.
Tests used:
[1] = tested on: STAT1/3 through TYK2/JAK1; experiment: IFNa induced STAT phosphorylation in HEK293 cells (SIE-bla reporter gene); assay type: cell-based; conditions: HEK293T-sie-bla cells, IFNa at EC80, 4 hours, read-out: Inhibition of IFNa induced STAT phosphorylation HEK293 cells IC50
How it was run: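 HEK293T cells carrying a SIE-driven β-lactamase reporter were co-treated with compound (1/5 serial dilution, 10 points, 0.1% DMSO final) and IFNa at EC80 for 4 h at 37°C. β-Lactamase substrate was added to stop the stimulation, followed by overnight dark incubation and FRET read. IC50 from a four-parameter logistic fit.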

STAT6 through JAK1/JAK3 = experiment: IL4 induced STAT phosphorylation in Ramos cells (STAT6-bla reporter gene); assay type: cell-based; conditions: for inhibition at 5 µM / inhibition at 25 µM: Homo sapiens, Ramos; for inhibition at 25 µM: compound concentration 25 µM
Protocol: Stimulation of RAMOS cells with interleukine IL-4 activates the signaling pathway of STAT6 through JAK1/JAK3. In this assay, measurement of the activity of the reporter gene β-lactamase expression was used as the readout.
Ramos STAT6-bla RA-1 cell line were purchased from Life Technologies (ref. #K1243) and cultured as specified by the provider. A number of 30.000 cells per well (35 µl) were plated in a 384-well plate (Corning ref.# 3712) and cultured overnight at 37°C with 5% CO2 in a complete Optimem media (Life Technologies ref. #11058-021) containing 556 µg/mL CD40 (Life Technologies ref. #PHP0025), 0.5% (v/v) heat inactivated FBS (Life Technologies ref. #10082-147), 10 µM non-essential aminoacids NEAA (Sigma ref. #M7145), 100 µM Sodium Pyruvate (Gibco ref. #11360-039) and 100 U/mL Penicillin (Sigma ref. #P0781). Compounds were initially dissolved in 100% DMSO. Compound curves were then prepared using a 1/5 serial dilution (10 dilutions). The dilutions were directly diluted in complete Optimem media without CD40 at 40-fold their final concentration in 20% DMSO. IL-4 initial solution (Prepotech ref. #200-04) was prepared at 10-fold its EC80 in complete Optimem media without CD40. Compounds and IL-4 were added simultaneously to the wells with cells and incubated during 4 hours at 37°C (the final DMSO was 0.1%). The β-lactamase substrate (LifeTechnologies ref.#K1138) was prepared at 6-fold its final concentration as specified by the provider. Then 10 µL of the mixture was added to the wells to stop the stimulation. Plate was left in the dark over-night. Then a FRET reading was performed on an appropriate plate reader.
All experiments were analysed using an ExcelFit template and the four-parameter log equation. As % vs compound concentration. TABLE 3: Inhibition of IL4 induced STAT phosphorylation in Ramos cells.

[2] = target: T1, TYK2 (JH2domain-pseudokinase) (Homo sapiens, UniProt P29597); experiment: TYK2 JH2 domain binding assay (KINOMEscan)
T1 construct: TYK2 (JH2domain-pseudokinase)-tagged T7 phage strains were prepared in an E. coli host derived from the BL21 strain; made in house; host or cells: E. coli BL21-derived host (T7 phage) or HEK-293 cells
T1 sequence (P29597 589-875 limits assumed): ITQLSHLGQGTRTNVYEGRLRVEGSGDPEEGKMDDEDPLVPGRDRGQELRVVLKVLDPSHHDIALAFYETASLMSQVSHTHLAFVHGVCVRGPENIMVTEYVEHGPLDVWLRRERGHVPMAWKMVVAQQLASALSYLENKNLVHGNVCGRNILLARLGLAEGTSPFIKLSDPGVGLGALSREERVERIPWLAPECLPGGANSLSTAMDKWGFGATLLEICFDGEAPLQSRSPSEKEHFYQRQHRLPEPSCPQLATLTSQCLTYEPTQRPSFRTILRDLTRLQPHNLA
How it was run: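 Competition binding of DNA-tagged TYK2 JH2 pseudokinase domain against immobilised affinity ligand, 1 h at room temperature in SeaBlock/PBS/Tween/DTT buffer with about 1% DMSO. Bound kinase eluted and quantified by qPCR. Kd taken from 11-point 3-fold series, usually 30,000 nM top, fitted by Levenberg-Marquardt nonlinear least squares.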

Compound	IC50 ([1]; Homo sapiens, HEK293) [nM]	inhibition at 5 µM (STAT6 through JAK1/JAK3; compound concentration 5 µM) [%]	Kd [2] [nM]	% Inhibition of IL4 induced STAT phosphorylation Ramos cells (STAT6 through JAK1/JAK3; compound concentration 5 µM, 5 µM)	inhibition at 25 µM (STAT6 through JAK1/JAK3) [%]	IC50 [1] [nM]
COc1c(Nc2cc(NC(=O)C3CC3)ncn2)cccc1-c1ncn(C)n1 [Example 1, N-[6-[2-methoxy-3-(1-methyl-1,2,4-triazol-3-yl)anilino]pyrimidin-4-yl]cyclopropanecarboxamide]	100 to 1000	25	1 to 10			
COc1c(Nc2cc(Nc3cc(C)nc(C)n3)ncn2)cccc1-c1ncn(C)n1 [Example 4, N6-(2,6-dimethylpyrimidin-4-yl)-N4-[2-methoxy-3-(1-methyl-1,2,4-triazol-3-yl)phenyl]pyrimidine-4,6-diamine]	10 to 100	33	0.2 to 1			
COc1c(C)cccc1Nc1cc(Nc2cc(C)nc(C)n2)ncn1 [Example 6, N6-(2,6-dimethylpyrimidin-4-yl)-N4-(2-methoxy-3-methyl-phenyl)pyrimidine-4,6-diamine]	10 to 100	62	0.2 to 1			
Cc1cc(Nc2cc(Nc3ccccc3N(C)S(C)(=O)=O)ncn2)nc(C)n1 [Example 12, N-[2-[[6-[(2,6-dimethylpyrimidin-4-yl)amino]pyrimidin-4-yl]amino]phenyl]-N-methyl-methanesulfonamide]	> 1000	46	< 0.2			
Cc1cc(Nc2cc(Nc3ccc(-c4cnn(C)c4C)cc3N(C)S(C)(=O)=O)ncn2)nc(C)n1 [Example 25, N-[5-(1,5-dimethylpyrazol-4-yl)-2-[[6-[(2,6-dimethylpyrimidin-4-yl)amino]pyrimidin-4-yl]amino]phenyl]-N-methyl-methanesulfonamide]	< 10	57	< 0.2			
CN(c1ccccc1Nc1cc(Nc2cccc(C#N)n2)ncn1)S(C)(=O)=O [Example 32, N-[2-[[6-[(6-cyano-2-pyridyl)amino]pyrimidin-4-yl]amino]phenyl]-N-methyl-methanesulfonamide]	< 10	70	< 0.2			
COc1c(Nc2cc(Nc3cc(C)nc(C)n3)ncn2)cccc1-c1noc(C)n1 [Example 37, N4-(2,6-dimethylpyrimidin-4-yl)-N6-[2-methoxy-3-(5-methyl-1,2,4-oxadiazol-3-yl)phenyl]pyrimidine-4,6-diamine]	10 to 100	44	< 0.2			
Cc1cc(Nc2cc(Nc3ccc(C4CC4)cc3N(C)S(C)(=O)=O)ncn2)nc(C)n1 [Example 70, N-[5-cyclopropyl-2-[[6-[(2,6-dimethylpyrimidin-4-yl)amino]pyrimidin-4-yl]amino]phenyl]-N-methyl-methanesulfonamide]	< 10		< 0.2	78% and 55%		
COc1cc(-c2cnn(C)c2C)ccc1Nc1cc(Nc2cc(C)nc(C)n2)ncn1 [Example 80, N6-[4-(1,5-dimethylpyrazol-4-yl)-2-methoxy-phenyl]-N4-(2,6-dimethylpyrimidin-4-yl)pyrimidine-4,6-diamine]	10 to 100	47	< 0.2			
Cc1cc(Nc2cc(Nc3ccc(-c4cnn(C)c4C)cc3S(C)(=O)=O)ncn2)nc(C)n1 [Example 86, N4-[4-(1,5-dimethylpyrazol-4-yl)-2-methylsulfonyl-phenyl]-N6-(2,6-dimethylpyrimidin-4-yl)pyrimidine-4,6-diamine]	< 10		< 0.2		78	
Cc1cc(Nc2cc(Nc3ncc(-c4cnn(C)c4C)cc3N(C)S(C)(=O)=O)ncn2)ncc1F [Example 103, N-[5-(1,5-dimethylpyrazol-4-yl)-2-[[6-[(5-fluoro-4-methyl-2-pyridyl)amino]pyrimidin-4-yl]amino]-3-pyridyl]-N-methyl-methanesulfonamide]	< 10	49	< 0.2			
COc1c(-c2ncn(C)n2)ccnc1Nc1cc(Nc2cc(C)nc(C)n2)ncn1 [Example 119, N6-(2,6-dimethylpyrimidin-4-yl)-N4-[3-methoxy-4-(1-methyl-1,2,4-triazol-3-yl)-2-pyridyl]pyrimidine-4,6-diamine]	< 10	47	< 0.2			
Cc1cc(Nc2cc(Nc3ncc(-c4cnn(C)c4C)cc3N(C)S(C)(=O)=O)ncn2)nc(C)n1 [Example 124, N-[5-(1,5-dimethylpyrazol-4-yl)-2-[[6-[(2,6-dimethylpyrimidin-4-yl)amino]pyrimidin-4-yl]amino]-3-pyridyl]-N-methyl-methanesulfonamide]	< 10	50	< 0.2			
Cc1cc(Nc2cc(Nc3ncccc3S(C)(=O)=O)ncn2)nc(C)n1 [Example 125, N4-(2,6-dimethylpyrimidin-4-yl)-N6-(3-methylsulfonyl-2-pyridyl)pyrimidine-4,6-diamine]	< 10	46	< 0.2			
Cc1cc(Nc2cc(Nc3ncc(-c4cnn(C)c4)cc3N(C)S(C)(=O)=O)ncn2)nc(C)n1 [Example 126, N-[2-[[6-[(2,6-dimethylpyrimidin-4-yl)amino]pyrimidin-4-yl]amino]-5-(1-methylpyrazol-4-yl)-3-pyridyl]-N-methyl-methanesulfonamide]	< 10		< 0.2		54	
Cc1cc(Nc2cc(Nc3ncc(-c4cnn(C)c4C)cc3N(C)S(C)(=O)=O)ncn2)ncn1 [Example 135, N-[5-(1,5-dimethylpyrazol-4-yl)-2-[[6-[(6-methylpyrimidin-4-yl)amino]pyrimidin-4-yl]amino]-3-pyridyl]-N-methyl-methanesulfonamide]	100 to 1000	37	< 0.2			
Cc1cc(Nc2cc(Nc3ncc(-c4cnn(C)c4C)cc3S(C)(=O)=O)ncn2)nc(C)n1 [Example 137, N4-[5-(1,5-dimethylpyrazol-4-yl)-3-methylsulfonyl-2-pyridyl]-N6-(2,6-dimethylpyrimidin-4-yl)pyrimidine-4,6-diamine]	< 10		< 0.2		0	
Cc1c(-c2cnc(Nc3cc(Nc4ccc(F)cn4)ncn3)c(N(C)S(C)(=O)=O)c2)cnn1C [Example 138, N-[5-(1,5-dimethylpyrazol-4-yl)-2-[[6-[(5-fluoro-2-pyridyl)amino]pyrimidin-4-yl]amino]-3-pyridyl]-N-methyl-methanesulfonamide]	< 10	6	< 0.2			
Cc1c(-c2cnc(Nc3cc(NC(=O)C4CC4)ncn3)c(N(C)S(C)(=O)=O)c2)cnn1C [Example 139, N-[6-[[5-(1,5-dimethylpyrazol-4-yl)-3-[methyl(methylsulfonyl)amino]-2-pyridyl]amino]pyrimidin-4-yl]cyclopropanecarboxamide]	< 10	28	< 0.2			
N-[5-(1,5-dimethylpyrazol-4-yl)-2-[[6-[(2,6-dimethylpyrimidin-4-yl)amino]pyrimidin-4-yl]amino]-3-pyridyl]-N-(trideuteriomethyl)methanesulfonamide [Example 133]			< 0.2			< 10
